Test results taken from ChEMBL document CHEMBL5512645, “A novel antimicrobial peptide with broad-spectrum and exceptional stability derived from the natural peptide Brevicidine” (Eur J Med Chem, 2024).
Calls of active or inactive are those of the source. No cut-off for these calls is given here.

Columns and labels:
Pseudomonas aeruginosa [1] = experiment: Antibacterial activity against Pseudomonas aeruginosa ATCC 27853 at sub-MIC measured after 2 days; type: functional, organism-based; details: time 2.0 day
Staphylococcus aureus [2] = experiment: Antibacterial activity against Staphylococcus aureus ATCC 25923 at sub-MIC measured after 4 days; type: functional, organism-based; details: time 4.0 day
Staphylococcus aureus [3] = experiment: Antibacterial activity against Staphylococcus aureus ATCC 25923 assessed as fold increase in MIC pretreated with Na-cl followed by compound addition and measured after 2 hrs by broth microdilution method; type: functional
Escherichia coli = experiment: Antibacterial activity against Escherichia coli ATCC 25922 incubated for 18 to 24 hrs by broth microdilution method; type: functional; details: time 18-24 hrs
Acinetobacter baumannii = experiment: Antibacterial activity against Acinetobacter baumannii ATCC 19606 incubated for 18 to 24 hrs by broth microdilution method; type: functional; details: time 18-24 hrs
Pseudomonas aeruginosa [4] = experiment: Antibacterial activity against Pseudomonas aeruginosa ATCC 27853 incubated for 18 to 24 hrs by broth microdilution method; type: functional; details: time 18-24 hrs
Klebsiella pneumoniae = experiment: Antibacterial activity against Klebsiella pneumoniae ATCC 700603 incubated for 18 to 24 hrs by broth microdilution method; type: functional; details: time 18-24 hrs
Erythrocyte = experiment: Hemolytic activity in mouse red blood cell assessed as hemolysis incubated for 1 hr; type: toxicity, cell-based
[5] = test system: Staphylococcus epidermidis; experiment: Antibacterial activity against Staphylococcus epidermidis ATCC 12228 incubated for 18 to 24 hrs by broth microdilution method; type: functional; details: time 18-24 hrs
Staphylococcus aureus [6] = experiment: Antibacterial activity against Staphylococcus aureus ATCC 25923 assessed as fold increase in MIC pretreated with Zncl2 followed by compound addition and measured after 2 hrs by broth microdilution method; type: functional
Enterococcus faecalis = experiment: Antibacterial activity against Enterococcus faecalis ATCC 29212 incubated for 18 to 24 hrs by broth microdilution method; type: functional; details: time 18-24 hrs
Bacillus subtilis = experiment: Antibacterial activity against Bacillus subtilis ATCC 23857 incubated for 18 to 24 hrs by broth microdilution method; type: functional; details: time 18-24 hrs
Staphylococcus aureus [7] = experiment: Antibacterial activity against Staphylococcus aureus ATCC 25923 incubated for 18 to 24 hrs by broth microdilution method; type: functional; details: time 18-24 hrs
Pseudomonas aeruginosa [8] = experiment: Antibacterial activity against Pseudomonas aeruginosa ATCC 27853 at sub-MIC measured after 3 days; type: functional, organism-based; details: time 3.0 day
Staphylococcus aureus [9] = experiment: Antibacterial activity against Staphylococcus aureus ATCC 25923 at sub-MIC measured after 5 days; type: functional, organism-based; details: time 5.0 day
[10] = Toxicity in male BALB/c mouse assessed as lethal dose administered as ip measured after 7 days; type: organism-based; details: in vivo, ip, 168 h, time 7 day
[11] = Toxicity in male BALB/c mouse assessed as cellular infiltration in kidney at 19.45 mg/kg, ip administered as single dose by H and E staining based analysis; type: organism-based; details: in vivo
[12] = Toxicity in male BALB/c mouse assessed as hemorrhage in liver at 19.45 mg/kg, ip administered as single dose by H and E staining based analysis; type: organism-based; details: in vivo
[13] = Toxicity in male BALB/c mouse assessed as cellular infiltration in spleen at 19.45 mg/kg, ip administered as single dose by H and E staining based analysis; type: organism-based; details: in vivo
[14] = Toxicity in male BALB/c mouse assessed as alveolar shrinkage in lung at 19.45 mg/kg, ip administered as single dose by H and E staining based analysis; type: organism-based; details: in vivo
[15] = Toxicity in male BALB/c mouse assessed as cellular infiltration in lung at 19.45 mg/kg, ip administered as single dose by H and E staining based analysis; type: organism-based; details: in vivo
[16] = Toxicity in male BALB/c mouse assessed as cell necrosis in liver at 19.45 mg/kg, ip administered as single dose by H and E staining based analysis; type: organism-based; details: in vivo
[17] = Toxicity in male BALB/c mouse assessed as survival rate at 23.8 to 30 mg/kg, ip measured within 30 mins relative to control; type: organism-based; details: in vivo, 0.5 h, dose 23.8-30 mg/kg
[18] = Toxicity in male BALB/c mouse assessed as survival rate at 15 mg/kg, ip measured after 7 days relative to control; type: organism-based; details: in vivo, 168 h, time 7 day
[19] = Toxicity in male BALB/c mouse assessed as massive edema in kidney at 19.45 mg/kg, ip administered as single dose by H and E staining based analysis; type: organism-based; details: in vivo
[20] = Toxicity in male BALB/c mouse assessed as hemorrhage in spleen at 19.45 mg/kg, ip administered as single dose by H and E staining based analysis; type: organism-based; details: in vivo
[21] = Toxicity in male BALB/c mouse assessed as cellular infiltration in liver at 19.45 mg/kg, ip administered as single dose by H and E staining based analysis; type: organism-based; details: in vivo
[22] = Toxicity in male BALB/c mouse assessed as hemorrhage in kidney at 19.45 mg/kg, ip administered as single dose by H and E staining based analysis; type: organism-based; details: in vivo
[23] = Toxicity in male BALB/c mouse assessed as hemorrhage in lung at 19.45 mg/kg, ip administered as single dose by H and E staining based analysis; type: organism-based; details: in vivo

CO[C@H]1/C=C/O[C@@]2(C)Oc3c(C)c(O)c4c(O)c(c(/C=N/N5CCN(C)CC5)c(O)c4c3C2=O)NC(=O)/C(C)=C\C=C\[C@H](C)[C@H](O)[C@@H](C)[C@@H](O)[C@@H](C)[C@H](OC(C)=O)[C@@H]1C
Activity (Pseudomonas aeruginosa [1]): inactive | Activity (Staphylococcus aureus [2]): inactive

CCC(C)CCC(=O)N[C@H](CC(N)=O)C(=O)N[C@H](Cc1c[nH]c2ccccc12)C(=O)N[C@H](Cc1c[nH]c2ccccc12)C(=O)N[C@H](CCCN)C(=O)N[C@@H](CCCN)C(=O)NCC(=O)N[C@H](CCCN)C(=O)N[C@@H](Cc1c[nH]c2ccccc12)C(=O)N[C@@H]1C(=O)N[C@@H]([C@@H](C)CC)C(=O)NCC(=O)N[C@@H](CO)C(=O)O[C@@H]1C (mixture of isomers)
fold change (FC) (Staphylococcus aureus [3]): 4 | MIC (Escherichia coli): 8 µM | MIC (Acinetobacter baumannii): 32 µM | MIC (Pseudomonas aeruginosa [4]): 4 µM | MIC (Klebsiella pneumoniae): 8 µM | MHC (Erythrocyte): 64 µM | MIC [5]: 32 µM | fold change (FC) (Staphylococcus aureus [6]): 4 | MIC (Enterococcus faecalis): 128 µM | MIC (Bacillus subtilis): 16 µM | MIC (Staphylococcus aureus [7]): 32 µM

CCC(C)CCC(=O)N[C@H](CC(N)=O)C(=O)N[C@H](Cc1ccc(O)cc1)C(=O)N[C@H](Cc1c[nH]c2ccccc12)C(=O)N[C@H](CCCN)C(=O)N[C@@H](CCCN)C(=O)NCC(=O)N[C@H](C)C(=O)N[C@@H](Cc1c[nH]c2ccccc12)C(=O)N[C@@H]1C(=O)N[C@@H]([C@@H](C)CC)C(=O)NCC(=O)N[C@@H](CO)C(=O)O[C@@H]1C (mixture of isomers)
MIC (Escherichia coli): 8 µM | MIC (Acinetobacter baumannii): 8 µM | MIC (Pseudomonas aeruginosa [4]): 16 µM | MIC (Klebsiella pneumoniae): 16 µM | MHC (Erythrocyte): 32 µM | MIC [5]: 32 µM | MIC (Enterococcus faecalis): 64 µM | MIC (Bacillus subtilis): 16 µM | MIC (Staphylococcus aureus [7]): 32 µM

CCC(C)CCC(=O)N[C@H](CC(N)=O)C(=O)N[C@H](Cc1ccc(O)cc1)C(=O)N[C@H](Cc1c[nH]c2ccccc12)C(=O)N[C@H](CCCN)C(=O)N[C@@H](CCCN)C(=O)N[C@@H](CCCN)C(=O)N[C@H](CCCN)C(=O)N[C@@H](Cc1c[nH]c2ccccc12)C(=O)N[C@@H]1C(=O)N[C@@H]([C@@H](C)CC)C(=O)NCC(=O)N[C@@H](CO)C(=O)O[C@@H]1C (mixture of isomers)
MIC (Escherichia coli): 2 µM | MIC (Acinetobacter baumannii): 8 µM | MIC (Pseudomonas aeruginosa [4]): 1 µM | MIC (Klebsiella pneumoniae): 2 µM | MHC (Erythrocyte): 128 µM | MIC [5]: 16 µM | MIC (Enterococcus faecalis): 128 µM | MIC (Bacillus subtilis): 8 µM | MIC (Staphylococcus aureus [7]): 32 µM

CCC(C)CCC(=O)N[C@H](CC(N)=O)C(=O)N[C@H](Cc1ccc(O)cc1)C(=O)N[C@H](Cc1c[nH]c2ccccc12)C(=O)N[C@H](CCCN)C(=O)N[C@@H](C)C(=O)NCC(=O)N[C@H](CCCN)C(=O)N[C@@H](Cc1c[nH]c2ccccc12)C(=O)N[C@@H]1C(=O)N[C@@H]([C@@H](C)CC)C(=O)NCC(=O)N[C@@H](CO)C(=O)O[C@@H]1C (mixture of isomers)
MIC (Escherichia coli): 8 µM | MIC (Acinetobacter baumannii): 8 µM | MIC (Pseudomonas aeruginosa [4]): 4 µM | MIC (Klebsiella pneumoniae): 8 µM | MHC (Erythrocyte): 64 µM | MIC [5]: 32 µM | MIC (Enterococcus faecalis): 64 µM | MIC (Bacillus subtilis): 16 µM | MIC (Staphylococcus aureus [7]): 32 µM

CCC(C)CCC(=O)N[C@H](CCCN)C(=O)N[C@H](Cc1ccc(O)cc1)C(=O)N[C@H](Cc1c[nH]c2ccccc12)C(=O)N[C@H](CCCN)C(=O)N[C@@H](CCCN)C(=O)NCC(=O)N[C@H](CCCN)C(=O)N[C@@H](Cc1c[nH]c2ccccc12)C(=O)N[C@@H]1C(=O)N[C@@H]([C@@H](C)CC)C(=O)NCC(=O)N[C@@H](CO)C(=O)O[C@@H]1C (mixture of isomers)
MIC (Escherichia coli): 4 µM | MIC (Acinetobacter baumannii): 8 µM | MIC (Pseudomonas aeruginosa [4]): 1 µM | MIC (Klebsiella pneumoniae): 2 µM | MHC (Erythrocyte): 128 µM | MIC [5]: 16 µM | MIC (Enterococcus faecalis): 64 µM | MIC (Bacillus subtilis): 4 µM | MIC (Staphylococcus aureus [7]): 32 µM

CCC(C)CCC(=O)N[C@H](CC(N)=O)C(=O)N[C@H](Cc1ccc(O)cc1)C(=O)N[C@H](Cc1c[nH]c2ccccc12)C(=O)N[C@H](C)C(=O)N[C@@H](CCCN)C(=O)NCC(=O)N[C@H](CCCN)C(=O)N[C@@H](Cc1c[nH]c2ccccc12)C(=O)N[C@@H]1C(=O)N[C@@H]([C@@H](C)CC)C(=O)NCC(=O)N[C@@H](CO)C(=O)O[C@@H]1C (mixture of isomers)
MIC (Escherichia coli): 8 µM | MIC (Acinetobacter baumannii): 8 µM | MIC (Pseudomonas aeruginosa [4]): 8 µM | MIC (Klebsiella pneumoniae): 8 µM | MHC (Erythrocyte): 64 µM | MIC [5]: 32 µM | MIC (Enterococcus faecalis): 32 µM | MIC (Bacillus subtilis): 16 µM | MIC (Staphylococcus aureus [7]): 32 µM

GENTAMICIN
Activity (Pseudomonas aeruginosa [8]): inactive | Activity (Staphylococcus aureus [9]): inactive

POLYMYXIN B
LD50 [10]: 19.45 mg/kg | Activity [11]: Toxic | Activity [12]: Toxic | Activity [13]: Toxic | Activity [14]: Toxic | Activity [15]: Toxic | Activity [16]: Toxic | Survival [17]: 0% | Survival [18]: 100% | MHC (Erythrocyte): 128 µM | Activity [19]: Toxic | Activity [20]: Toxic | Activity [21]: Toxic | Activity [22]: Toxic | Activity [23]: Toxic
